These results are taken from patent US10793563B2, “GCN2 inhibitors and uses thereof” (Merck Patent GmbH, priority 2018, dated 2020).

One test addresses GCN2 kinase (Homo sapiens (Human), UniProt Q9P2K8). The experiment in a line: GCN2 Enzyme Inhibition Assay (Transcreener ADP2 fluorescence polarization). The format is biochemical. The settings on record: 280 μM ATP, 200 μM (RS)7 peptide, 4 nM GCN2, 25° C.; for Ki: Ki(app). The method, boiled down:
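At 25 °C, GCN2 kinase (typical final concentration 4 nM) and (RS)7 peptide in Tris-HCl pH 7.5 buffer with MgCl2, NaCl and DTT were preincubated with compound for 10 min, then ATP was added for a 1 h reaction. ADP was read by FP with antibody/Alexa633 tracer. Non-linear tight-binding analysis gave IC50 and apparent Ki.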
For orientation: In fluorescence polarisation assays a small probe gives low polarisation when free and higher when bound to something large.

Test [1] has as its target intracellular GCN2 (phosphorylation of the GCN2 substrate eIF2α) (Homo sapiens (Human), UniProt Q9P2K8). Description: GCN2 Cellular Inhibition Assay (AlphaScreen SureFire P-eIF2α Ser51, borrelidin-treated U2OS cells). In kind it is cell-based. The note with it: 10 μM borrelidin, 1 h, phosphorylated eIF2α Ser51, read-out: GCN2 Biomarker (IC50). How it is done: Compounds can be screened for their ability to inhibit intracellular GCN2 using an AlphaScreen assay (Perkin Elmer) to detect phosphorylation of the GCN2 substrate eIF2α in borrelidin-treated cells. U2OS cells are plated at 5,000 cells per well in 384-well white polystyrene plates (Corning 3570) in McCoy's 5A media (GIBCO 26600-023) supplemented with 10% foetal bovine serum (SAFC 12103C), Penicillin/Streptomycin solution diluted 1:100 (Sigma P0781), and 2 mM L-glutamine (Sigma G7513), and allowed to adhere overnight at 37° C. in 5% CO2. Compounds are then added to the cell media from a final concentration of 40 μM in 4-fold serial dilutions. Borrelidin (FluoroChem M01440) is immediately added to the wells to a final concentration of 10 μM and the cells are incubated for 1 h at 37° C. in 5% CO2. After 1 h of treatment with borrelidin, the media is removed, and the cells are lysed with lysis buffer (TGR BioSceinces TGRLB) at ambient temperature.
An AlphaScreen SureFire P-eIF2α (Ser51) assay kit (Perkin Elmer TGREIF2S) was used to measure levels of eIF2α phosphorylated on Serine 51. Anti-phosphorylated eIF2α Ser51 antibody-linked acceptor beads (TGR BioScience 6760617) are added to the cell homogenate (diluted 1:250 into a mixture of activation (TGR BioScience TGRAB) and reaction buffer (TGR BioScience TGREIF2S) prepared immediately before use). The plate is then incubated for 2 h at ambient temperature in the dark. Anti-eIF2α antibody-linked donor beads (TGR BioScience 6760617) were then added (diluted 1:100 in dilution buffer (TGR BioScience TGRDB) prepared immediately before use). The plate is then incubated overnight at ambient temperature in the dark.
Plates are analyzed on an Alpha Technology-compatible PHERAstar FS plate reader (BMG Labtech Version 1.14) to quantify phosphorylated eIF2α Ser51 levels. The percentage inhibition of phosphorylated eIF2α is calculated by comparison to control wells stimulated with borrelidin alone.

As usually defined, the IC50 is the concentration that gives 50% inhibition.

Some results are limits rather than exact numbers.

Chain of GCN2 kinase (Q9P2K8 whole entry): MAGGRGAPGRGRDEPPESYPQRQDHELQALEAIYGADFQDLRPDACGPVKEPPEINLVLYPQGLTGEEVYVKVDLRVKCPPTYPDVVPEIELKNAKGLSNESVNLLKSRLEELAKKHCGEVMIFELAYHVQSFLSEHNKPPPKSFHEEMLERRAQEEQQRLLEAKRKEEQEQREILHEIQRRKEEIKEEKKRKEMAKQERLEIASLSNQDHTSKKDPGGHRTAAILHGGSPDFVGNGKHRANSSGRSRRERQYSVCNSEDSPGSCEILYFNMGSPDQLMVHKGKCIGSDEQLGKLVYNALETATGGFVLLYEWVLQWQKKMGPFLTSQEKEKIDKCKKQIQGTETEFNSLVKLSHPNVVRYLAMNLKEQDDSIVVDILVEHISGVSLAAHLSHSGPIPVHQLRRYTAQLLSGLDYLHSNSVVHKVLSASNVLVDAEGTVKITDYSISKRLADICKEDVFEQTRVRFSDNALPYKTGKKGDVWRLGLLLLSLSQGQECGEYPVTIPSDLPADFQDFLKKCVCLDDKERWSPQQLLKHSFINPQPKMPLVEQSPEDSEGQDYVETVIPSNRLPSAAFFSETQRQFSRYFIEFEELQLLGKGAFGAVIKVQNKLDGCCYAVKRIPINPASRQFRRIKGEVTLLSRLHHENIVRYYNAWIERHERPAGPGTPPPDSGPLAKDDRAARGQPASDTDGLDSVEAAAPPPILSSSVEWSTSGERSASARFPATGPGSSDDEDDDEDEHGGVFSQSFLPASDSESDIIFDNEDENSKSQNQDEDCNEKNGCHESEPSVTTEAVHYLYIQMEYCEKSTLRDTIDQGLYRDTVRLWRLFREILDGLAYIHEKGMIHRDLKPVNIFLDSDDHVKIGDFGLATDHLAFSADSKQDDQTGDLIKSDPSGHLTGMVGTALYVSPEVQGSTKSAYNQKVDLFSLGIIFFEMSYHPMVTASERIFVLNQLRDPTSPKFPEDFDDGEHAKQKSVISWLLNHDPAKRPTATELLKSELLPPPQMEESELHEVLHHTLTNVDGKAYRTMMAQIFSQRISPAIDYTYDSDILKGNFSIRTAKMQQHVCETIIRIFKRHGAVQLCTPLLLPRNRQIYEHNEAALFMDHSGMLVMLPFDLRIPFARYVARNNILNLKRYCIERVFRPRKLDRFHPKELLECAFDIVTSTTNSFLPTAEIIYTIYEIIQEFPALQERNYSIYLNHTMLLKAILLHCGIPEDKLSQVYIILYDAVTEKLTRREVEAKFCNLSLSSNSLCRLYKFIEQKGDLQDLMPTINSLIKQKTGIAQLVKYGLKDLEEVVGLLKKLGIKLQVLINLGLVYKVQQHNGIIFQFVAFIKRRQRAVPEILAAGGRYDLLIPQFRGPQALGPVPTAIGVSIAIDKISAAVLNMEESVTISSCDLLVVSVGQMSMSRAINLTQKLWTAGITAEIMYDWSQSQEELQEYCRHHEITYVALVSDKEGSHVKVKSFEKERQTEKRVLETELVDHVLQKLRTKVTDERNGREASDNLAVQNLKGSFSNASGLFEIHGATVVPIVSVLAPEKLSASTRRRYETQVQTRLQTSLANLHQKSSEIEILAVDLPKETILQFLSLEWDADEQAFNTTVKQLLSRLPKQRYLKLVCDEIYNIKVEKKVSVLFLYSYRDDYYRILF
Chain of intracellular GCN2 (phosphorylation of the GCN2 substrate eIF2α) (Q9P2K8 whole entry): as above

For the compound `CC(C)n1cc(C(=O)N2CCN(c3ccnc(-c4cnc5ccc(C(F)(F)F)cn45)n3)CC2c2cn[nH]c2)cn1` (stereo not shown) [I-391, (2-(1H-pyrazol-4-yl)-4-(2-(6-(trifluoromethyl)imidazo[1,2-a]pyridin-3-yl)pyrimidin-4-yl)piperazin-1-yl)(1-isopropyl-1H-pyrazol-4-yl)methanone], the IC50 against GCN2 kinase was in the range of 100 to 1000 nM; in test [1] it was 500 to 5000 nM.
On to `C[C@H]1C[C@@H](N=S(C)(C)=O)CN(c2nccc(-c3cnc4ccc(Cl)cn34)n2)C1` (stereo in doubt) [I-159, (((3R,5S)-1-(4-(6-chloroimidazo[1,2-a]pyridin-3-yl)pyrimidin-2-yl)-5-methylpiperidin-3-yl)imino)dimethyl-λ6-sulfanone], for which the figures for the IC50 (against GCN2 kinase; in test [1]) were 10 to 100 nM and less than 500 nM, respectively.
The like results for `FC(F)(F)c1ccc2ncc(-c3nccc(N4CCN(C5CC6(COC6)C5)[C@@H](c5cn[nH]c5)C4)n3)n2c1` [I-502, (S)-3-(4-(3-(1H-pyrazol-4-yl)-4-(2-oxaspiro[3.3]heptan-6-yl)piperazin-1-yl)pyrimidin-2-yl)-6-(trifluoromethyl)imidazo[1,2-a]pyridine] were, in that order, 10 to 100 nM and less than 500 nM.
Taken in the same sequence, the figures for `CC(C)(C)c1ncc(CN2CCN(c3ccnc(-c4cnc5ccc(C(F)(F)F)cn45)n3)CC2c2cn[nH]c2)[nH]1` (stereo not shown) [I-373, 3-(4-(4-((2-(tert-butyl)-1H-imidazol-5-yl)methyl)-3-(1H-pyrazol-4-yl)piperazin-1-yl)pyrimidin-2-yl)-6-(trifluoromethyl)imidazo[1,2-a]pyridine] were less than 10 nM and less than 500 nM.
With `CS(=O)(=O)NC1CC(C(F)(F)F)CN(c2ccnc(-c3cnc4ccc(C(F)F)cn34)n2)C1` (stereo not shown) [I-531, N-(1-(2-(6-(difluoromethyl)imidazo[1,2-a]pyridin-3-yl)pyrimidin-4-yl)-5-(trifluoromethyl)piperidin-3-yl)methanesulfonamide], the IC50 at GCN2 kinase was 10 to 100 nM; in test [1], less than 500 nM.
In the case of `NC(=O)C1(C2CCCN(c3ccnc(-c4cnc5ccc(Cl)cn45)n3)C2)CC1` (stereo not shown) [I-303, 1-(1-(2-(6-chloroimidazo[1,2-a]pyridin-3-yl)pyrimidin-4-yl)piperidin-3-yl)cyclopropane-1-carboxamide], the figures for the IC50 (at GCN2 kinase; in test [1]) were 10 to 100 nM and 500 to 5000 nM, respectively.
The compound `CC(=O)N1CCN(c2ccnc(-c3cnc4ccc(C(F)F)cn34)n2)CC1` [I-14, 1-[4-[2-[6-(Difluoromethyl)imidazo[1,2-a]pyridin-3-yl]pyrimidin-4-yl]piperazin-1-yl]ethanone] yielded a Ki on GCN2 kinase of 10 to 100 nM. The IC50 in test [1] was 500 to 5000 nM.
Taken in the same sequence, the figures for `CS(=O)(=O)NC[C@@H]1CN(c2nc(-c3cnc4ccc(C(F)F)cn34)ns2)CCO1` [I-107, (S)—N-((4-(3-(6-(difluoromethyl)imidazo[1,2-a]pyridin-3-yl)-1,2,4-thiadiazol-5-yl)morpholin-2-yl)methyl)methanesulfonamide] were less than 10 nM and less than 500 nM.
Taken in the same sequence, the figures for `FC(F)(F)c1ccc2ncc(-c3nccc(N4CCOC(c5cn[nH]c5)C4)n3)n2c1` (stereo not shown) [I-45, 2-(1H-Pyrazol-4-yl)-4-(2-(6-(trifluoromethyl)imidazo[1,2-a]pyridin-3-yl)pyrimidin-4-yl)morpholine] were less than 10 nM and less than 500 nM.
As for `Cc1[nH]ncc1[C@@H]1CN(c2ccnc(-c3cnc4cc(F)c(Cl)cn34)n2)C[C@@H](C)O1` [I-538, (2R,6R)-4-(2-(6-chloro-7-fluoroimidazo[1,2-a]pyridin-3-yl)pyrimidin-4-yl)-2-methyl-6-(5-methyl-1H-pyrazol-4-yl)morpholine], the IC50 on GCN2 kinase was 10 to 100 nM; in test [1] it was 500 to 5000 nM.
For the compound `CC1CCC(C(=O)O)CN1c1ccnc(-c2cnc3ccc(C(F)(F)F)cn23)n1` (stereo not shown) [I-201, 6-methyl-1-(2-(6-(trifluoromethyl)imidazo[1,2-a]pyridin-3-yl)pyrimidin-4-yl)piperidine-3-carboxylic acid], the results for the IC50 (against GCN2 kinase; in test [1]) were 10 to 100 nM and 500 to 5000 nM, respectively.
Taken in the same sequence, the figures for `NC(=O)[C@H]1CN(c2ccnc(-c3cnc4ccc(Cl)cn34)n2)CCN1C1CC1` [I-349, (R)-4-(2-(6-chloroimidazo[1,2-a]pyridin-3-yl)pyrimidin-4-yl)-1-cyclopropylpiperazine-2-carboxamide] were 10 to 100 nM and 500 to 5000 nM.
Taken in the same sequence, the figures for `C[C@@H]1C[C@H](N=S(C)(C)=O)CN(c2ccnc(-c3cnc4ccc(Br)cn34)n2)C1` [I-289, (((3 S,5R)-1-(2-(6-bromoimidazo[1,2-a]pyridin-3-yl)pyrimidin-4-yl)-5-methylpiperidin-3-yl)imino)dimethyl-λ6-sulfanone] were 10 to 100 nM and 500 to 5000 nM.
The like results for `CC(NS(C)(=O)=O)C1CN(c2ccnc(-c3cnc4ccc(C(F)(F)F)cn34)n2)CCO1` (stereo not shown) [I-327, N-(1-(4-(2-(6-(trifluoromethyl)imidazo[1,2-a]pyridin-3-yl)pyrimidin-4-yl)morpholin-2-yl)ethyl)methanesulfonamide] were, in that order, 10 to 100 nM and 500 to 5000 nM.
In the case of `FC(F)(F)c1ccc2ncc(-c3nccc(N4CCN(C[C@H]5CC56CCOCC6)[C@@H](c5cn[nH]c5)C4)n3)n2c1` [I-521, 3-(4-((S)-4-(((S)-6-oxaspiro[2.5]octan-1-yl)methyl)-3-(1H-pyrazol-4-yl)piperazin-1-yl)pyrimidin-2-yl)-6-(trifluoromethyl)imidazo[1,2-a]pyridine], the values for the half-maximal inhibitory concentration (IC50) (on GCN2 kinase; in test [1]) were less than 10 nM and less than 500 nM, respectively.
Taken in the same sequence, the figures for `C[C@@H]1C[C@H](N=S(C)(C)=O)CN(c2ccnc(-c3cnc4ccc(C#N)cn34)n2)C1` [I-262, 3-(4-((3S,5R)-3-((dimethyl(oxo)-λ6-sulfaneylidene)amino)-5-methylpiperidin-1-yl)pyrimidin-2-yl)imidazo[1,2-a]pyridine-6-carbonitrile] were 10 to 100 nM and more than 5000 nM.
On to `Cc1[nH]ncc1[C@H]1CN(c2nccc(-c3cnc4ccc(Cl)cn34)n2)C[C@@H](C)O1` [I-180, (2R,6S)-4-(4-(6-chloroimidazo[1,2-a]pyridin-3-yl)pyrimidin-2-yl)-2-methyl-6-(5-methyl-1H-pyrazol-4-yl)morpholine], for which the half-maximal inhibitory concentration (IC50) against GCN2 kinase was less than 10 nM; in test [1], less than 500 nM.
Taken in the same sequence, the figures for `NC(=O)C1CN(c2ccnc(-c3cnc4cc(F)c(Cl)cn34)n2)CCN1C1CC1` (stereo not shown) [I-389, 4-(2-(6-chloro-7-fluoroimidazo[1,2-a]pyridin-3-yl)pyrimidin-4-yl)-1-cyclopropylpiperazine-2-carboxamide] were 10 to 100 nM and 500 to 5000 nM.
As for `Cc1[nH]ncc1[C@H]1CN(c2nccc(-c3cnc4ccc(C(F)(F)F)cn34)n2)C[C@@H](C)O1` (relative stereo) [I-115, cis-2-Methyl-6-(3-methyl-1H-pyrazol-4-yl)-4-{4-[6-(trifluoromethyl)imidazo[1,2-a]pyridin-3-yl]pyrimidin-2-yl}morpholine], the half-maximal inhibitory concentration (IC50) in test [1] was less than 500 nM.
Still for that read-out and setting: as for `O=S1(=O)CC2(CC(N3CCN(c4ccnc(-c5cnc6ccc(C(F)(F)F)cn56)n4)C[C@@H]3c3cn[nH]c3)C2)C1` [I-556, (S)-6-(2-(1H-pyrazol-4-yl)-4-(2-(6-(trifluoromethyl)imidazo[1,2-a]pyridin-3-yl)pyrimidin-4-yl)piperazin-1-yl)-2-thiaspiro[3.3]heptane 2,2-dioxide], the figure is 500 to 5000 nM.
The same measure, in the same setting: as for `C[C@H]1C[C@@H](c2cn[nH]c2)CN(c2nccc(-c3cnc4ccc(C(F)(F)F)cn34)n2)C1` (mixture of isomers) [I-114, 2-[3-methyl-5-(1H-pyrazol-4-yl)piperidin-1-yl]-4-[6-(trifluoromethyl)imidazo[1,2-a]pyridin-3-yl]pyrimidine], the figure is less than 500 nM; as for `FC(F)(F)c1ccc2ncc(-c3nccc(N4CCN(C[C@@H]5CC56CC6)[C@@H](c5cn[nH]c5)C4)n3)n2c1` [I-554, 3-(4-((S)-3-(1H-pyrazol-4-yl)-4-(((R)-spiro[2.2]pentan-1-yl)methyl)piperazin-1-yl)pyrimidin-2-yl)-6-(trifluoromethyl)imidazo[1,2-a]pyridine], less than 500 nM.
